For 9 molecules, IC50 results are on record in patent US11254668B2, “Pyrazolo[1,5-A]pyrazin-4-yl and related derivatives” (Pfizer Inc., priority 2017, dated 2022).

By IC50 is commonly meant the concentration at which inhibition is half-maximal.

Holding throughout (assay type): biochemical
One assay has as its target JAK3 (Homo sapiens (Human), UniProt P52333). Briefly: JAK Caliper Enzyme Assay at 1 mM ATP, JAK3. The method in brief: (§1)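 Recombinant human kinase domains phosphorylate a fluorescent synthetic peptide at 1 mM ATP, room temperature, with enzyme and time tuned for 20-30% conversion; EDTA-stopped. Product/substrate separated by microfluidic mobility shift; percent effect versus DMSO and positive controls fitted to IC50 (nM).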

The target of another assay is JAK1 (Homo sapiens (Human), UniProt P23458). Kind of assay: JAK Caliper Enzyme Assay at 1 mM ATP, JAK1. The method in brief:
as §1

For another assay, the target named is JAK2 (Homo sapiens (Human), UniProt O60674). Kind of assay: JAK Caliper Enzyme Assay at 1 mM ATP, JAK2. In outline: (§2)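 Peptide phosphorylation by recombinant human kinase domain, 1 mM ATP, room temperature, EDTA-terminated, detected by microfluidic mobility shift; % effect normalised to DMSO baseline.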
Sequence of JAK2 (O60674 849-1124): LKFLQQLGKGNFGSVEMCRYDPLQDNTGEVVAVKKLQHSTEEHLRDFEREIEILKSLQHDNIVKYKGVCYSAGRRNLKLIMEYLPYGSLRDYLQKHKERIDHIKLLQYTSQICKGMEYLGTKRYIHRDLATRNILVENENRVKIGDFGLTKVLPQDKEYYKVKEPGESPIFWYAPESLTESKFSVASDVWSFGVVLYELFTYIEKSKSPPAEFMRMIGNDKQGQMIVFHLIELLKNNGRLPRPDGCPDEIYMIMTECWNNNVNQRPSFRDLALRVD
The target of another assay is TYK2 (Homo sapiens (Human), UniProt P29597). Briefly: JAK Caliper Enzyme Assay at 1 mM ATP, TYK2. In outline:
as §2

Sequence of TYK2 (P29597 897-1176): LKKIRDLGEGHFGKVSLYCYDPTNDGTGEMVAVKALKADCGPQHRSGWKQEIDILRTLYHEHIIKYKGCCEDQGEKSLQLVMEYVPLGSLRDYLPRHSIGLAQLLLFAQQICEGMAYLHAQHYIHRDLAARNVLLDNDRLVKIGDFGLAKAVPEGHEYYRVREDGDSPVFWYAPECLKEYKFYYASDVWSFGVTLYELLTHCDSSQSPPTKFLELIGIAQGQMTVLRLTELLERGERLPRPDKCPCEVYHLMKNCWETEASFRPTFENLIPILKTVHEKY
Sequence of JAK1 (P23458 875-1153): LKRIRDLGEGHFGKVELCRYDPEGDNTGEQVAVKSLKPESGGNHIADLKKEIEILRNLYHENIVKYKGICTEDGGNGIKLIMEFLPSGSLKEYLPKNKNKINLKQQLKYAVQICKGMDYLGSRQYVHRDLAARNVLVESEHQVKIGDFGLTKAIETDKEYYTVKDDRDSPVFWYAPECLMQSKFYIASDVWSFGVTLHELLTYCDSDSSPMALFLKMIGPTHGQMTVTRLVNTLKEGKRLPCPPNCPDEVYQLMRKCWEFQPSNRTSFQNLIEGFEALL
Sequence of JAK3 (P52333 822-1111): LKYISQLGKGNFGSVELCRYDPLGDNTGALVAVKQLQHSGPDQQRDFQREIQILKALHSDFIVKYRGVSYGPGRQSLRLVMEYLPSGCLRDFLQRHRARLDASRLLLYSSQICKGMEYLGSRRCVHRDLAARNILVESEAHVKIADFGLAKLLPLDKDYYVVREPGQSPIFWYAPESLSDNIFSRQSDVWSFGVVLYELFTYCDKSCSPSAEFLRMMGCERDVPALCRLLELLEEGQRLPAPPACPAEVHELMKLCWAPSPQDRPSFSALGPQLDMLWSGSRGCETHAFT

Consider `CS(=O)(=O)N1CC(CC#N)(n2ccc(-c3cc(-c4cn[nH]c4)cc4ncccc34)n2)C1` [Example 284, [1-(methylsulfonyl)-3-{3-[7-(1H-pyrazol-4-yl)quinolin-5-yl]-1H-pyrazol-1-yl}azetidin-3-yl]acetonitrile], for which the IC50 was greater than 10 µM on JAK3, 6.83 µM at JAK1, 2.5 µM on JAK2 and 0.171 µM on TYK2.
Regarding `Cn1cc(-c2cc(-c3ccn(C4(CC#N)CN(CC(F)(F)F)C4)n3)c3cccnc3c2)cn1` [Example 285, [3-{3-[7-(1-methyl-1H-pyrazol-4-yl)quinolin-5-yl]-1H-pyrazol-1-yl}-1-(2,2,2-trifluoroethyl)azetidin-3-yl]acetonitrile], the IC50 is greater than 10 µM on JAK3, greater than 10 µM on JAK1, 2.95 µM on JAK2 and 0.342 µM at TYK2.
For the molecule `Cn1cc(-c2cc(-c3ccn(C4(CC#N)CN(S(C)(=O)=O)C4)n3)c3cccnc3c2)cn1` [Example 286, [3-{3-[7-(1-methyl-1H-pyrazol-4-yl)quinolin-5-yl]-1H-pyrazol-1-yl}-1-(methylsulfonyl)azetidin-3-yl]acetonitrile], the IC50 on JAK3 was greater than 10 µM; on JAK1, greater than 10 µM; at JAK2, 1.81 µM; at TYK2 it was 0.212 µM.
For the molecule `CS(=O)(=O)N1CC(CC#N)(n2ccc(-c3cc(-c4ccc(=O)[nH]c4)cc4ncccc34)n2)C1` [Example 287, [1-(methylsulfonyl)-3-{3-[7-(6-oxo-1,6-dihydropyridin-3-yl)quinolin-5-yl]-1H-pyrazol-1-yl}azetidin-3-yl]acetonitrile], the concentration for half-maximal inhibition (IC50) on JAK3 is greater than 10 µM; on JAK1, greater than 10 µM; at JAK2, 5.38 µM; at TYK2, 0.201 µM.
For `CS(=O)(=O)N1CC(CC#N)(n2cc(-c3cc(-c4cc[nH]n4)cc4ncccc34)cn2)C1` [Example 288, [1-(methylsulfonyl)-3-{4-[7-(1H-pyrazol-3-yl)quinolin-5-yl]-1H-pyrazol-1-yl}azetidin-3-yl]acetonitrile], the IC50 is greater than 10 µM on JAK3, 0.796 µM on JAK1, 0.336 µM at JAK2 and 0.112 µM at TYK2.
The like results for `CS(=O)(=O)N1CC(CC#N)(n2cc(-c3cc(-c4cn[nH]c4)cc4ncccc34)cn2)C1` [Example 289, [1-(methylsulfonyl)-3-{4-[7-(1H-pyrazol-4-yl)quinolin-5-yl]-1H-pyrazol-1-yl}azetidin-3-yl]acetonitrile] were, in that order, greater than 10 µM, 1.53 µM, 0.525 µM and 0.197 µM.
As to `N#CC[C@]1(n2cc(-c3cc(-c4cn[nH]c4N)cc4ncccc34)cn2)C[C@H](C#N)C1` [Example 290, trans-3-{4-[7-(5-amino-1H-pyrazol-4-yl)quinolin-5-yl]-1H-pyrazol-1-yl}-3-(cyanomethyl)cyclobutanecarbonitrile], the IC50 is greater than 10 µM at JAK3, 2.96 µM on JAK1, 1.75 µM at JAK2 and 0.236 µM at TYK2.
In the case of `CO[C@H]1C[C@](CC#N)(n2cc(-c3cc(-c4c[nH]nc4N)cc4ncccc34)cn2)C1` [Example 291, (trans-1-{4-[7-(3-amino-1H-pyrazol-4-yl)quinolin-5-yl]-1H-pyrazol-1-yl}-3-methoxycyclobutyl)acetonitrile], the IC50 on JAK3 was greater than 10 µM; on JAK1 it was 8.82 µM; on JAK2, 3.73 µM; on TYK2, 0.343 µM.
For `Cn1cc(-c2cc(-c3cnn(C4(CC#N)CN(CC#N)C4)c3)c3cccnc3c2)cn1` [Example 292, 2,2′-(3-{4-[7-(1-methyl-1H-pyrazol-4-yl)quinolin-5-yl]-1H-pyrazol-1-yl}azetidine-1,3-diyl)diacetonitrile] the same measures were greater than 10 µM, 0.653 µM, 0.071 µM and 0.036 µM.
